The values that follow are results of earlier work, collected in patent US7767228B2, “Pharmaceutical composition for oral application and method for preparing thereof” (Cum Pharma Consulting Anstalt, priority 2004, dated 2010).

`O=C(C1CCCCC1)N1CC(=O)N2CCc3ccccc3C2C1` (stereo not shown) [Praziquantel, praziquantel]: the solubility in water result is “very low”.
